Source: US20160108049A1 (TAKEDA Gmbh, priority 2011, published 2016)

Key:
[1] = target: T1, human PDE5 (Homo sapiens, UniProt O76074); assay: Inhibition of PDE5 activity (platelet lysate, SPA assay); assay type: biochemical; conditions: 0.5 μM cGMP, read-out: PDE5 Inhibitory values measured as -logIC50 (converted)
T1 construct: from tissue; host or cells: human platelets from fresh donor blood (platelet lysate)
Experimental: Method for Measuring Inhibition of PDE5 Activity
As a source for human PDE5, platelets were used. For that purpose, 150 ml fresh blood from human donors anticoagulated with citrate [final concentration 0.3% (w/v)] was centrifuged at 200 g for 10 min to obtain the so-called platelet-rich-plasma (PRP) as a supernatant. […] After centrifugation (1,400 g, 10 min) the cell pellet was resuspended in 3 ml homogenization buffer (NaCl 140 mM, KCl 3.8 mM, EGTA (ethylene glycol tetraacetic acid) 1 mM, MgCl2 1 mM, Tris-HCl 20 mM, beta-mercaptoethanol 1 mM, pH 8.2) plus protease-inhibitor mix resulting in final concentrations of 0.5 mM Pefablock (Roche), 10 μM Leupeptin, 5 μM Trypsine inhibitor, 2 mM Benzamidin and 10 μM Pepstatin A. The suspension was sonicated and thereafter centrifuged for 15 min at 10,000 g. The resulting supernatant (platelet lysate) was used for enzymatic assays.
PDE5 activities were measured in a 96-well platform using SPA (scintillation proximity assay) yttrium silicate beads (RPNQ1050 from GE Healthcare). In a first step the PDE activity operated hydrolysis of either [^3H] cGMP (substrate) into [^3H] 5′GMP. In a second step substrate and product were distinguished following addition of SPA yttrium silicate beads. Indeed, in the presence of zinc sulphate the linear [^3H] […] Close proximity of bound [^3H] […] The test volume was 100 μl and contained 20 mM Tris buffer (pH 7.4), 0.1 mg of BSA (bovine serum albumin)/ml, 5 mM Mg^2+, 1 μM motapizone (PDE3 Inhibitor), 10 nM PDE2 inhibitor 2-(3,4-dimethoxybenzyl)-7-[(1R,2R)-2-hydroxy-1-(2-phenylethyl)propyl]-5-methylimidazo[5,1-f][1,2,4]triazin-4(3H)-one, 0.5 μM cGMP (cyclic guanosine monophosphate) (including about 50,000 cpm of [3H]cGMP as a tracer) (substrate), 1 μl of the respective compound dilution in dimethylsulfoxide (DMSO) and sufficient PDE5-containing platelet lysat (10,000×g supernatant, see above) to ensure that 10-20% of the cGMP was converted under the said experimental conditions. […] After a preincubation of 5 min at 37° C., the reaction was commenced by adding the substrate (cGMP) and the assay was incubated for a further 15 min. The reaction was terminated by adding SPA beads (50 μl). In agreement with the manufacturer's instructions, the SPA beads had previously been resuspended in water, but were then diluted 1:3 (v/v) in water. This diluted solution also contained 3 mM 8-methoxymethyl-3-isobutyl-1-methylxanthine (IBMX) to ensure a complete block of PDE activity. Once the beads were sedimented (>30 min), the MTP's were analyzed in commercially available luminescence detection devices. The corresponding IC50 values of the compounds for inhibition of PDE activity were determined from the concentration-effect curves by means of non-linear regression.
(§1) The numbers of the compounds correspond to the numbers of the examples.

[2] = target: T2, PDE4B1 (Homo sapiens, UniProt Q07343); assay: Inhibition of PDE4 activity (PDE4B1, SPA assay); assay type: biochemical; conditions: recombinant PDE4B1, 0.5 μM cAMP; read-out: PDE4B1 Inhibitory values measured as -logIC50 (converted)
T2 construct: made in house; host or cells: SF21 insect cells (baculovirus; virus made in SF9 cells, pCR-Bac vector)
T2 sequence (Q07343 whole entry): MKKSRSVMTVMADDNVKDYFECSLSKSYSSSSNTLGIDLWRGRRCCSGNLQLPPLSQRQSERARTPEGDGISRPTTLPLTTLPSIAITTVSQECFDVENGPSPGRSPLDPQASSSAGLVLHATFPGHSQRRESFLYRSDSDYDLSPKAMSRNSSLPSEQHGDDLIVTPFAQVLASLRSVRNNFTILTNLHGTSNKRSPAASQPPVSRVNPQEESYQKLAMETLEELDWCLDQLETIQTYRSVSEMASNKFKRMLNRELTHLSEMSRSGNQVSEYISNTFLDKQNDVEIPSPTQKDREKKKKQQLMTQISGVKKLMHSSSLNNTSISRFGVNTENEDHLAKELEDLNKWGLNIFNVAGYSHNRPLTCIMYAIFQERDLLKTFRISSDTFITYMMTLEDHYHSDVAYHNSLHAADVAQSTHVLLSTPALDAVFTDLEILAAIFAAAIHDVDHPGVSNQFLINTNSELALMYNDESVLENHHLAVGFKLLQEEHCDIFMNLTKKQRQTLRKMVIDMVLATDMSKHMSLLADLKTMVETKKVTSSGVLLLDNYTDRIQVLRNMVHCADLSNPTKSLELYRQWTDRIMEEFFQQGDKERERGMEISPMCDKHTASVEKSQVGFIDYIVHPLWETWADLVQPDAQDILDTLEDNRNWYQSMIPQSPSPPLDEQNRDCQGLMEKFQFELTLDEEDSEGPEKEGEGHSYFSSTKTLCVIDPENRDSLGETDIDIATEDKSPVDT
Experimental: Method for Measuring Inhibition of PDE4 Activity
The PDE4B1 (GB no. L20966) was a gift of Prof. M. Conti (Stanford University, USA). It was amplified from the original plasmid (pCMV5) via PCR with primers Rb18 (5′-[…]-3′) and Rb10 (5′-[…]-3′) and cloned into the pCR-Bac vector (Invitrogen, Groningen, NL).
The recombinant baculovirus was prepared by means of homologous recombination in SF9 insect cells. The expression plasmids were cotransfected with Baculo-Gold DNA (Pharmingen, Hamburg) using a standard protocol (Pharmingen, Hamburg). Wt virus-free recombinant virus supernatants were selected using plaque assay methods. After that, high-titre virus supernatants were prepared by amplifying 3 times. PDE4B1 was expressed in SF21 cells by infecting 2×10^6 cells/ml with an MOI (multiplicity of infection) between 1 and 10 in the serum-free SF900 medium (GIBCO Life Technologies, Karlsruhe, Germany) The cells were cultured at 28° C. for 48-72 hours, after which they were pelleted for 5-10 min at 1000×g and 4° C.
The SF21 insect cells were resuspended, at a concentration of approx. 10^7 cells/ml, in ice-cold (4° C.) homogenization buffer (20 mM Tris, pH 8.2, containing the following additions: 140 mM NaCl, 3.8 mM KCl, 1 mM EGTA, 1 mM MgCl2, 10 mM β-mercaptoethanol, 2 mM benzamidine, 0.4 mM Pefablock, 10 μM leupeptin, 10 μM pepstatin A, 5 μM trypsin inhibitor) and disrupted by ultrasonication. The homogenate was then centrifuged for 10 min at 1000×g and the supernatant was stored at −80° C. until subsequent use (see below). The protein content was determined by the Bradford method (BioRad, Munich) using BSA (Bovine serum albumin) as the standard.
PDE4B1 activities were measured in a 96-well platform using SPA (scintillation proximity assay) yttrium silicate beads (RPNQ1050 from GE Healthcare). In a first step the PDE activity operated hydrolysis of either [^3H] cAMP (substrate) into […]. In a second step substrate and product were distinguished following addition of SPA yttrium silicate beads. […] Close proximity of bound [^3H] […] The test volume was 100 μl and finally contained 20 mM Tris buffer (pH 7.4), 0.1 mg/ml of BSA, 5 mM Mg^2+, 0.5 μM cAMP (including about 50,000 cpm of [3H]cAMP) as substrate, 1 μl of the respective substance dilution in DMSO and sufficient recombinant PDE (1000×g supernatant, see above) to ensure that 10-20% of the cAMP was converted under the said experimental conditions. […] After a preincubation of 5 min at 37° C., the reaction was commenced by adding the substrate (cAMP) and the assays were incubated for a further 15 min. Reactions were terminated by adding SPA beads (50 μl). In agreement with the manufacturer's instructions, the SPA beads had previously been resuspended in water, but were then diluted 1:3 (v/v) in water. This diluted solution further contained 3 mM IBMX (isobutylmethylxanthine) to ensure a complete block of PDE activity. Once the beads were sedimented (>30 min), the MTP's (micro titerplate) were analyzed in commercially available […]. The corresponding IC50 values of the compounds for inhibition of PDE4B1 activity were determined from the concentration-effect curves by means of non-linear regression.
as §1

Row | Structure (SMILES) | IC50 [1] [nM] | IC50 [2] [nM]
1 | COc1ccc(C2=NN(C3CCN(C(=O)[C@@H](Cc4cc(F)cc(F)c4)NC(=O)c4c[nH]c5c(-c6c(OCC7CC7)ccc7c6OCO7)ncnc45)CC3)C(=O)[C@@H]3CCCC[C@H]23)cc1OC [Example 1, 4-[5-(cyclopropylmethoxy)-1,3-benzodioxol-4-yl]-N-[(2R)-3-(3,5-difluorophenyl)-1-{4-[(4aS,8aR)-4-(3,4-dimethoxyphenyl)-1-oxo-4a,5,6,7,8,8a-hexahydrophthalazin-2(1H)-yl]piperidin-1-yl}-1-oxopropan-2-yl]-5H-pyrrolo[3,2-d]pyrimidine-7-carboxamide] | 1 to 10 | < 1
2 | COc1cc(OCC2CC2)c(-c2ncnc3c(C(=O)N[C@@H](Cc4cccc(C)c4)C(=O)N4CCC(N5N=C(c6ccc(OC)c(OC)c6)[C@H]6CCCC[C@H]6C5=O)CC4)c(C)[nH]c23)cc1F [Example 2, 4-[2-(cyclopropylmethoxy)-5-fluoro-4-methoxyphenyl]-N-[(2S)-1-{4-[(4aS,8aR)-4-(3,4-dimethoxyphenyl)-1-oxo-4a,5,6,7,8,8a-hexahydrophthalazin-2(1H)-yl]piperidin-1-yl}-3-(3-methylphenyl)-1-oxopropan-2-yl]-6-methyl-5H-pyrrolo[3,2-d]pyrimidine-7-carboxamide] | 1 to 10 | 1 to 10
3 | COc1ccc(C2=NN(C3CCN(C(=O)[C@H](Cc4cccc(C)c4)NC(=O)c4c[nH]c5c(-c6c(OCC7CC7)ccc7c6OCO7)ncnc45)CC3)C(=O)[C@@H]3CCCC[C@H]23)cc1OC [Example 3, 4-[5-(cyclopropylmethoxy)-1,3-benzodioxol-4-yl]-N-[(2S)-1-{4-[(4aS,8aR)-4-(3,4-dimethoxyphenyl)-1-oxo-4a,5,6,7,8,8a-hexahydrophthalazin-2(1H)-yl]piperidin-1-yl}-3-(3-methylphenyl)-1-oxopropan-2-yl]-5H-pyrrolo[3,2-d]pyrimidine-7-carboxamide] | 1 to 10 | < 1
4 | COc1ccc(C2=NN(C3CCN(C(=O)[C@H](Cc4cccc(C)c4)NC(=O)c4c(C)[nH]c5c(-c6c(OCC7CC7)ccc7c6OCO7)ncnc45)CC3)C(=O)[C@@H]3CCCC[C@H]23)cc1OC [Example 4, 4-[5-(cyclopropylmethoxy)-1,3-benzodioxol-4-yl]-N-[(2S)-1-{4-[(4aS,8aR)-4-(3,4-dimethoxyphenyl)-1-oxo-4a,5,6,7,8,8a-hexahydrophthalazin-2(1H)-yl]piperidin-1-yl}-3-(3-methylphenyl)-1-oxopropan-2-yl]-6-methyl-5H-pyrrolo[3,2-d]pyrimidine-7-carboxamide] | 1 to 10 | 1 to 10
5 | COc1cc(OCC2CC2)c(-c2ncnc3c(C(=O)N[C@H](Cc4ccc(C(C)(C)C)cc4)C(=O)N4CCC(N5N=C(c6ccc(OC)c(OC)c6)[C@H]6CCCC[C@H]6C5=O)CC4)c(C)[nH]c23)cc1F [Example 5, N-[(2R)-3-(4-tert-butylphenyl)-1-{4-[(4aS,8aR)-4-(3,4-dimethoxyphenyl)-1-oxo-4a,5,6,7,8,8a-hexahydrophthalazin-2(1H)-yl]piperidin-1-yl}-1-oxopropan-2-yl]-4-[2-(cyclopropylmethoxy)-5-fluoro-4-methoxyphenyl]-6-methyl-5H-pyrrolo[3,2-d]pyrimidine-7-carboxamide] | 1 to 10 | 1 to 10
6 | COc1ccc(C2=NN(C3CCN(C(=O)[C@@H](Cc4ccc(C(C)(C)C)cc4)NC(=O)c4c[nH]c5c(-c6c(OCC7CC7)ccc7c6OCO7)ncnc45)CC3)C(=O)[C@@H]3CCCC[C@H]23)cc1OC [Example 6, N-[(2R)-3-(4-tert-butylphenyl)-1-{4-[(4aS,8aR)-4-(3,4-dimethoxyphenyl)-1-oxo-4a,5,6,7,8,8a-hexahydrophthalazin-2(1H)-yl]piperidin-1-yl}-1-oxopropan-2-yl]-4-[5-(cyclopropylmethoxy)-1,3-benzodioxol-4-yl]-5H-pyrrolo[3,2-d]pyrimidine-7-carboxamide] | 1 to 10 | 1 to 10
7 | COc1ccc(C2=NN(C3CCN(C(=O)[C@@H](Cc4ccc(C(N)=O)cc4)NC(=O)c4c[nH]c5c(-c6c(OCC7CC7)ccc7c6OCO7)ncnc45)CC3)C(=O)[C@@H]3CCCC[C@H]23)cc1OC [Example 7, N-[(2R)-3-(4-carbamoylphenyl)-1-{4-[(4aS,8aR)-4-(3,4-dimethoxyphenyl)-1-oxo-4a,5,6,7,8,8a-hexahydrophthalazin-2(1H)-yl]piperidin-1-yl}-1-oxopropan-2-yl]-4-[5-(cyclopropylmethoxy)-1,3-benzodioxol-4-yl]-5H-pyrrolo[3,2-d]pyrimidine-7-carboxamide] | < 1 | 1 to 10
8 | CCOc1ccc(C[C@@H](NC(=O)c2c(C)[nH]c3c(-c4cc(F)c(OC)cc4OCC4CC4)ncnc23)C(=O)N2CCC(N3N=C(c4ccc(OC)c(OC)c4)[C@H]4CCCC[C@H]4C3=O)CC2)cc1 [Example 8, 4-[2-(cyclopropylmethoxy)-5-fluoro-4-methoxyphenyl]-N-[(2R)-1-{4-[(4aS,8aR)-4-(3,4-dimethoxyphenyl)-1-oxo-4a,5,6,7,8,8a-hexahydrophthalazin-2(1H)-yl]piperidin-1-yl}-3-(4-ethoxyphenyl)-1-oxopropan-2-yl]-6-methyl-5H-pyrrolo[3,2-d]pyrimidine-7-carboxamide] | < 1 | 1 to 10
9 | COc1ccc(C2=NN(C3CCN(C(=O)[C@H](Cc4cscn4)NC(=O)c4c(C)[nH]c5c(-c6c(OCC7CC7)ccc7c6OCO7)ncnc45)CC3)C(=O)[C@@H]3CCCC[C@H]23)cc1OC [Example 87, 4-[5-(cyclopropylmethoxy)-1,3-benzodioxol-4-yl]-N-[(2S)-1-{4-[(4aS,8aR)-4-(3,4-dimethoxyphenyl)-1-oxo-4a,5,6,7,8,8a-hexahydrophthalazin-2(1H)-yl]piperidin-1-yl}-1-oxo-3-(1,3-thiazol-4-yl)propan-2-yl]-6-methyl-5H-pyrrolo[3,2-d]pyrimidine-7-carboxamide] | < 1 | –
